Columns and labels:
Cbl-b = Cbl-b (Homo sapiens (Human), UniProt Q13191); experiment: Cbl-b probe displacement HTRF binding assay; settings: 0.4 nM biotinylated Cbl-b, 150 nM BODIPY probe
Procedure: The affinity with which compounds of the present disclosure bind to Cbl-b was assessed using probe displacement homologous time resolved fluorescence (HTRF) assays. The assays used a BODIPY™ conjugated probe (Example 54 from WO 2020264398) and biotinylated Cbl-b. The assays were performed in assay buffer consisting of 20 mM Hepes, 150 mM NaCl, 0.01% Triton X-100, 0.5 mM TCEP, 0.01% BSA. On the day of the assay, a 20 point, 1:2 master serial dilution of each compound was prepared in DMSO to span a final concentration range of 10 μM to 0 nM. Two hundred nanoliters of diluted compound was added to each well of a 384-well plate. Fifteen microliters of biotinylated-Cbl-b resuspended in assay buffer were added to each well and the plate incubated for 60 minutes at room temperature prior to addition of 5 μL of BODIPY™ probe in assay buffer. Final assay conditions included 0.4 nM of Cbl-b and 150 nM of BODIPY™ probe. After a further 15 minutes of incubation at room temperature, 5 μl of Streptavidin-Terbium cryptate reagent at 5-fold final concentration was added to each well of the 384-well plate. Binding of a probe to Cbl-b results in an increase of HTRF signal. HTRF signal was measured by Envision plate reader, while competition of a compound of the present disclosure with probe results in a decrease of signal. Percentage maximum activity in each test well was calculated based on DMSO (maximum activity, 0% displacement) and no protein control wells (baseline activity, 100% displacement). Binding affinity was determined from a dose response curve fitted using a standard four parameter fit equation. See Table 3 for data for compounds (Cbl-b Binding (IC50)).

Jurkat cells = experiment: IL-2 secretion assay in CD3/CD28-activated Jurkat cells (AlphaLISA); type: cell-based, human; settings: Homo sapiens, CD3/CD28 activation, 24 h
Procedure: Certain compounds were also evaluated in an IL-2 secretion assay. On the day of the assay, a 16 point, 1:2 master serial dilution of each compound was prepared in Opti-MEM to span a final concentration range of […]. Assays were set up in CORNING® tissue culture-treated 384-well microplates containing 60 nL of each dilution. Jurkat cells grown in RPMI-1640 supplemented with 10% FBS, 1% Glutamax, and 1% Pen/Strep were collected, resuspended in Opti-MEM. 50,000 cells/well and added to the compound plates. After a short spin (1200 rpm for 1 min), the plates were incubated at 37° C. for 1 hour. The cells were activated by adding 15 μL of IMMUNOCULT™ Human CD3/CD28 T Cell Activator (STEMCELL Technologies) diluted in Opti-MEM. After 24 h of incubation at 37° C., aliquots of culture supernatants were transferred to OptiPlate-384 (PerkinElmer) microplates. The level of JIL-2 secretion in the supernatants was then determined using the IL-2 (human) AiphaLISA Detection Kit (PerkinElmer) according to the manufacturer's recommendations. The AiphaLISA signal was measured using an EnVision plate reader (PerkinElmer). EC50 values were determined by fitting the data to a standard 4-parameter logistic equation. See Table 3 for data for select compounds (IL-2 Secretion (EC50)).

Sequence of Cbl-b (Q13191 whole entry, species assumed): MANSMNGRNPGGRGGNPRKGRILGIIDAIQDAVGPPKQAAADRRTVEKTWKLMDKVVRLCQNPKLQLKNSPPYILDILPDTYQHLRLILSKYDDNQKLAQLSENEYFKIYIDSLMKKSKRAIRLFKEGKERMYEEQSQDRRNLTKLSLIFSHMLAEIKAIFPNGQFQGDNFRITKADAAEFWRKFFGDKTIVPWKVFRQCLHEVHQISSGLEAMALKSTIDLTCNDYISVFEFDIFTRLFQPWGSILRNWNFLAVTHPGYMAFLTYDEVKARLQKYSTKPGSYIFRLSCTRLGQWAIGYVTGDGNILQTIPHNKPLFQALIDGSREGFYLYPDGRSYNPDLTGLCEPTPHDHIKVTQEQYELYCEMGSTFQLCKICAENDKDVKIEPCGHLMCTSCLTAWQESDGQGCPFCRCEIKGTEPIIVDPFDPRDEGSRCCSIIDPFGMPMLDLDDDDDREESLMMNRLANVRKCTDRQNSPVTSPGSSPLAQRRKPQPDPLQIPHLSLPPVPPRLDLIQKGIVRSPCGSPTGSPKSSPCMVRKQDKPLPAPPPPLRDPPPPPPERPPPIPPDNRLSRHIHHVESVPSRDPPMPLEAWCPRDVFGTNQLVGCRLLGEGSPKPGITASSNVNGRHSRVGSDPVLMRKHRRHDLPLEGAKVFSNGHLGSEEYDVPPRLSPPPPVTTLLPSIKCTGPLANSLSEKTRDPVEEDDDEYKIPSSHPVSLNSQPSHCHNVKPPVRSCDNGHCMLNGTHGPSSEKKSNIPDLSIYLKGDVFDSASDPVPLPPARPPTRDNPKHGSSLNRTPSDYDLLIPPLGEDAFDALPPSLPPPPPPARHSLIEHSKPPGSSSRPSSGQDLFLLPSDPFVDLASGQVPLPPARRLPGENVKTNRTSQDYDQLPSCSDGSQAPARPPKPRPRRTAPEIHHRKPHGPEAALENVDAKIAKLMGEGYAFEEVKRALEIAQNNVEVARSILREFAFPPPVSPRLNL

Structure (SMILES)	IC50 (Cbl-b) [nM]	EC50 (Jurkat cells) [nM]
CNC(=O)c1cc(F)ccc1-c1cc(C2CC2)nc(-n2cc(C3CC3)c3cc(CN4CCC[C@H](C)C4)[nH]c3c2=O)c1 [Example 6, N-methyl2-[2-(2-{[(S)-3-methyl-1-piperidyl]methyl}-4-cyclopropyl-7-oxo-1,6-dihydro-1,6-diaza-6-indenyl)-6-cyclopropyl-4-pyridyl]-5-fluorobenzamide]	< 100	100 to 1000
C[C@H]1CCCN(Cc2cc3c(C4CC4)cn(-c4cc(-c5ccc(F)cc5C(=O)N5CCC5)cc(C5CC5)n4)c(=O)c3[nH]2)C1 [Example 7, 2-{[(S)-3-methyl-1-piperidyl]methyl}-6-(4-{2-[(1-azetidinyl)carbonyl]-4-fluorophenyl}-6-cyclopropyl-2-pyridyl)-4-cyclopropyl-1,6-dihydro-1,6-diaza-7-indenone]	< 100	< 100
C[C@H]1CCCN(Cc2cc3c(C4CC4)cn(-c4cc(-c5ccc(F)cc5C(=O)N(C)c5ccccc5)cc(C5CC5)n4)c(=O)c3[nH]2)C1 [Example 8, N-methyl-N-phenyl-2-[2-(2-{[(S)-3-methyl-1-piperidyl]methyl}-4-cyclopropyl-7-oxo-1,6-dihydro-1,6-diaza-6-indenyl)-6-cyclopropyl-4-pyridyl]-5-fluorobenzamide]	100 to 1000	> 5000
CC1CCCN1C(=O)c1cc(F)ccc1-c1cc(C2CC2)nc(-n2cc(C3CC3)c3cc(CN4CCC[C@H](C)C4)[nH]c3c2=O)c1 (stereo partly drawn) [Example 9, 2-{[(S)-3-methyl-1-piperidyl]methyl}-4-cyclopropyl-6-(6-cyclopropyl-4-{4-fluoro-2-[(2-methyl-1-pyrrolidinyl)carbonyl]phenyl}-2-pyridyl)-1,6-dihydro-1,6-diaza-7-indenone]	< 100	> 5000
C[C@H]1CCCN(Cc2cc3c(C4CC4)cn(-c4cc(-c5ccc(F)cc5C(=O)N5CC(F)C5)cc(C5CC5)n4)c(=O)c3[nH]2)C1 [Example 10, 2-{[(S)-3-methyl-1-piperidyl]methyl}-4-cyclopropyl-6-(6-cyclopropyl-4-{4-fluoro-2-[(3-fluoro-1-azetidinyl)carbonyl]phenyl}-2-pyridyl)-1,6-dihydro-1,6-diaza-7-indenone]	< 100	< 100
COC1CN(C(=O)c2cc(F)ccc2-c2cc(C3CC3)nc(-n3cc(C4CC4)c4cc(CN5CCC[C@H](C)C5)[nH]c4c3=O)c2)C1 [Example 11, 2-{[(S)-3-methyl-1-piperidyl]methyl}-4-cyclopropyl-6-(6-cyclopropyl-4-{4-fluoro-2-[(3-methoxy-1-azetidinyl)carbonyl]phenyl}-2-pyridyl)-1,6-dihydro-1,6-diaza-7-indenone]	< 100	100 to 1000
C[C@H]1CCCN(Cc2cc3c(C4CC4)cn(-c4cc(-c5ccc(F)cc5C(=O)NCC(F)(F)F)cc(C5CC5)n4)c(=O)c3[nH]2)C1 [Example 12, N-2,2,2-trifluoroethyl2-[2-(2-{[(S)-3-methyl-1-piperidyl]methyl}-4-cyclopropyl-7-oxo-1,6-dihydro-1,6-diaza-6-indenyl)-6-cyclopropyl-4-pyridyl]-5-fluorobenzamide]	100 to 1000	100 to 1000
CCN(C)C(=O)c1cc(F)ccc1-c1cc(C2CC2)nc(-n2cc(C3CC3)c3cc(CN4CCC[C@H](C)C4)[nH]c3c2=O)c1 [Example 13, N-ethyl-N-methyl2-[2-(2-{[(S)-3-methyl-1-piperidyl]methyl}-4-cyclopropyl-7-oxo-1,6-dihydro-1,6-diaza-6-indenyl)-6-cyclopropyl-4-pyridyl]-5-fluorobenzamide]	< 100	100 to 1000

The next lines start with the values.

IC50 (Cbl-b) [nM]	EC50 (Jurkat cells) [nM]	Structure (SMILES)
< 100	< 100	C[C@H]1CCCN(Cc2cc3c(C4CC4)cn(-c4cc(-c5ccc(F)cc5C(=O)N5CC(F)(F)C5)cc(C5CC5)n4)c(=O)c3[nH]2)C1 [Example 14, 2-{[(S)-3-methyl-1-piperidyl]methyl}-4-cyclopropyl-6-(6-cyclopropyl-4-{2-[(3,3-difluoro-1-azetidinyl)carbonyl]-4-fluorophenyl}-2-pyridyl)-1,6-dihydro-1,6-diaza-7-indenone]
< 100	100 to 1000	CC1CCN1C(=O)c1cc(F)ccc1-c1cc(C2CC2)nc(-n2cc(C3CC3)c3cc(CN4CCC[C@H](C)C4)[nH]c3c2=O)c1 (stereo partly drawn) [Example 15, 2-{[(S)-3-methyl-1-piperidyl]methyl}-4-cyclopropyl-6-(6-cyclopropyl-4-{4-fluoro-2-[(2-methyl-1-azetidinyl)carbonyl]phenyl}-2-pyridyl)-1,6-dihydro-1,6-diaza-7-indenone]
< 100	< 100	C[C@H]1CCCN(Cc2cc3c(C4CC4)cn(-c4cc(-c5ccc(F)cc5C(=O)N5CC(C#N)C5)cc(C5CC5)n4)c(=O)c3[nH]2)C1 [Example 16, 1-{2-[2-(2-{[(S)-3-methyl-1-piperidyl]methyl}-4-cyclopropyl-7-oxo-1,6-dihydro-1,6-diaza-6-indenyl)-6-cyclopropyl-4-pyridyl]-5-fluorobenzoyl}-3-azetidinecarbonitrile]
< 100	< 100	O=C(c1cc(F)ccc1-c1cc(C2CC2)nc(-n2cc(C3CC3)c3cc(CN[C@H]4CCC[C@H]4O)[nH]c3c2=O)c1)N1CC(F)C1 [Example 17, 2-{[(1S,2R)-2-hydroxycyclopentylamino]methyl}-4-cyclopropyl-6-(6-cyclopropyl-4-{4-fluoro-2-[(3-fluoro-1-azetidinyl)carbonyl]phenyl}-2-pyridyl)-1,6-dihydro-1,6-diaza-7-indenone]
100 to 1000	100 to 1000	C[C@H]1CCCN(Cc2cc3c(C4CC4)cn(-c4cc(-c5ccc(F)cc5C(N)=O)cc(C5CC5)n4)c(=O)c3[nH]2)C1 [Example 18, 2-[2-(2-{[(S)-3-methyl-1-piperidyl]methyl}-4-cyclopropyl-7-oxo-1,6-dihydro-1,6-diaza-6-indenyl)-6-cyclopropyl-4-pyridyl]-5-fluorobenzamide]
< 100	100 to 1000	C[C@H]1CCCN(Cc2cc3c(C#N)cn(-c4cc(-c5ccc(F)c(F)c5C(=O)N(C)C)cc(C5CC5)n4)c(=O)c3[nH]2)C1 [Example 19, N,N-dimethyl6-[2-(2-{[(S)-3-methyl-1-piperidyl]methyl}-4-cyano-7-oxo-1,6-dihydro-1,6-diaza-6-indenyl)-6-cyclopropyl-4-pyridyl]-2,3-difluorobenzamide]
100 to 1000	1000 to 5000	C[C@H]1CCCN(Cc2cc3c(C#N)cn(-c4cc(-c5cccnc5C(=O)N(C)C)cc(C5CC5)n4)c(=O)c3[nH]2)C1 [Example 20, N,N-dimethyl-2′-(2-{[(S)-3-methyl-1-piperidyl]methyl}-4-cyano-7-oxo-1,6-dihydro-1,6-diaza-6-indenyl)-6′-cyclopropyl-[3,4′-bipyridyl]-2-carboxamide]
< 100	< 100	C[C@H]1CCCN(Cc2cc3c(C#N)cn(-c4cc(-c5ccc(F)cc5C(=O)N5CC(F)C5)cc(C5CC5)n4)c(=O)c3[nH]2)C1 [Example 21, 2-{[(S)-3-methyl-1-piperidyl]methyl}-6-(6-cyclopropyl-4-{4-fluoro-2-[(3-fluoro-1-azetidinyl)carbonyl]phenyl}-2-pyridyl)-7-oxo-1,6-dihydro-1,6-diaza-4-indenecarbonitrile]
< 100	100 to 1000	C[C@H]1CCCN(Cc2cc3c(C#N)cn(-c4cc(C#N)cc(-c5ccc(F)cc5C(=O)N5CC(F)C5)c4)c(=O)c3[nH]2)C1 [Example 22, 2-{[(S)-3-methyl-1-piperidyl]methyl}-6-{5-cyano-4′-fluoro-2′-[(3-fluoro-1-azetidinyl)carbonyl]-3-biphenylyl}-7-oxo-1,6-dihydro-1,6-diaza-4-indenecarbonitrile]
100 to 1000	1000 to 5000	C[C@H]1CCCN(Cc2cc3c(C#N)cn(-c4cc(-c5ccc(F)cc5C(=O)N5CC(F)C5)cc(C(F)(F)F)c4)c(=O)c3[nH]2)C1 [Example 23, 2-{[(S)-3-methyl-1-piperidyl]methyl}-6-{4′-fluoro-2′-[(3-fluoro-1-azetidinyl)carbonyl]-5-(trifluoromethyl)-3-biphenylyl}-7-oxo-1,6-dihydro-1,6-diaza-4-indenecarbonitrile]

From patent US20240425497A1, “Cbl-b Inhibitors and Methods of Use Thereof” (ARCUS BIOSCIENCES, INC., priority 2023, published 2024)
